# Laboratory results taken from ChEMBL document CHEMBL1201862, “PubChem BioAssay data set” (2004).
#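 How tested: cells in 96-well plates exposed to compound for 48 hours at five concentrations. GI50 is the concentration that inhibits growth by half.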 Activity calls are given as the source filed them. No stated cut-off is given here; in the data, active = GI50 up to about 1.1 µM and inactive = higher.
# Tests used:
# Assay in all cases: NCI tumour cell line growth inhibition, 48 h
# HCT-15 = test system: HCT-15
# IGROV-1 = test system: IGROV-1
# UACC-62 = test system: UACC-62
# HT-29 = test system: HT-29
# M14 = test system: M14
# COLO 205 = test system: COLO 205
# SN12C = test system: SN12C
# OVCAR-8 = test system: OVCAR-8
# SK-MEL-28 = test system: SK-MEL-28
# MCF7 = test system: MCF7
# SF-268 = test system: SF-268
# HOP-92 = test system: HOP-92
# UACC-257 = test system: UACC-257
# MDA-MB-231 = test system: MDA-MB-231
# KM12 = test system: KM12
# DU-145 = test system: DU-145
# SF-295 = test system: SF-295
# NCI-H522 = test system: NCI-H522
# ACHN = test system: ACHN
# TK-10 = test system: TK-10
# SR = test system: SR
# NCI-H23 = test system: NCI-H23
# MDA-MB-435 = test system: MDA-MB-435
# SNB-19 = test system: SNB-19
# NCI-H460 = test system: NCI-H460
# BT-549 = test system: BT-549
# SF-539 = test system: SF-539
# NCI-H226 = test system: NCI-H226
# Hs-578T = test system: Hs-578T
# K562 = test system: K562
# MDA-N = test system: MDA-N
# SW-620 = test system: SW-620
# NCI/ADR-RES = test system: NCI/ADR-RES
# HCC 2998 = test system: HCC 2998
# SK-OV-3 = test system: SK-OV-3
# OVCAR-5 = test system: OVCAR-5
# SK-MEL-2 = test system: SK-MEL-2
# SK-MEL-5 = test system: SK-MEL-5
# CAKI-1 = test system: CAKI-1
# EKVX = test system: EKVX
# T47D = test system: T47D
# UO-31 = test system: UO-31
# Malme-3M = test system: Malme-3M
# RXF 393 = test system: RXF 393
# HCT-116 = test system: HCT-116
# 786-0 = test system: 786-0
# HOP-62 = test system: HOP-62
# HL-60 = test system: HL-60
# OVCAR-3 = test system: OVCAR-3
# LOX IMVI = test system: LOX IMVI
# SNB-75 = test system: SNB-75
# U-251 = test system: U-251
# OVCAR-4 = test system: OVCAR-4
# A549 = test system: A549
# A498 = test system: A498
# MOLT-4 = test system: MOLT-4
# PC-3 = test system: PC-3
# RPMI-8226 = test system: RPMI-8226
# CCRF-CEM = test system: CCRF-CEM
smiles,measurement,setting,value
O=c1c2ccccc2nc(-c2cccc([N+](=O)[O-])c2)n1O,GI50,HCT-15,17.8 µM
same,GI50,IGROV-1,22.8 µM (inactive)
same,GI50,UACC-62,33.5 µM (inactive)
same,GI50,HT-29,43.7 µM (inactive)
same,GI50,M14,50.8 µM (inactive)
same,GI50,COLO 205,31.3 µM (inactive)
same,GI50,SN12C,24.2 µM (inactive)
same,GI50,OVCAR-8,20.3 µM (inactive)
same,GI50,SK-MEL-28,> 100 µM (inactive)
same,GI50,MCF7,24.4 µM (inactive)
same,GI50,SF-268,34.4 µM (inactive)
same,GI50,HOP-92,3.94 µM (inactive)
same,GI50,UACC-257,50.7 µM (inactive)
same,GI50,MDA-MB-231,17.5 µM (inactive)
same,GI50,KM12,36.5 µM (inactive)
same,GI50,DU-145,> 100 µM (inactive)
same,GI50,SF-295,40.1 µM (inactive)
same,GI50,NCI-H522,28.6 µM (inactive)
same,GI50,ACHN,38.5 µM (inactive)
same,GI50,TK-10,94.2 µM (inactive)
same,GI50,SR,> 100 µM (inactive)
same,GI50,NCI-H23,50 µM (inactive)
same,GI50,MDA-MB-435,41.5 µM (inactive)
same,GI50,SNB-19,53.2 µM (inactive)
same,GI50,NCI-H460,29.2 µM (inactive)
same,GI50,BT-549,12 µM (inactive)
same,GI50,SF-539,47.8 µM (inactive)
same,GI50,NCI-H226,23.7 µM (inactive)
same,GI50,Hs-578T,> 100 µM (inactive)
same,GI50,K562,4.22 µM (inactive)
same,GI50,MDA-N,43.4 µM (inactive)
same,GI50,SW-620,35.3 µM (inactive)
same,GI50,NCI/ADR-RES,23.3 µM (inactive)
same,GI50,HCC 2998,59.6 µM (inactive)
same,GI50,SK-OV-3,42.8 µM (inactive)
same,GI50,OVCAR-5,66.7 µM (inactive)
same,GI50,SK-MEL-2,22.6 µM (inactive)
same,GI50,SK-MEL-5,32.7 µM (inactive)
same,GI50,CAKI-1,40.7 µM (inactive)
same,GI50,EKVX,36.8 µM (inactive)
same,GI50,T47D,58.5 µM (inactive)
same,GI50,UO-31,33.7 µM (inactive)
same,GI50,Malme-3M,> 80 µM (inactive)
same,GI50,RXF 393,47.1 µM (inactive)
same,GI50,HCT-116,41.5 µM (inactive)
same,GI50,786-0,42.9 µM (inactive)
same,GI50,HOP-62,49 µM (inactive)
same,GI50,HL-60,1.64 µM (inactive)
same,GI50,OVCAR-3,31.6 µM (inactive)
same,GI50,LOX IMVI,27.2 µM (inactive)
same,GI50,SNB-75,45.8 µM (inactive)
same,GI50,U-251,27.4 µM (inactive)
same,GI50,OVCAR-4,33 µM (inactive)
same,GI50,A549,34.9 µM (inactive)
same,GI50,A498,> 40.7 µM (inactive)
CN(C)c1ccc(/C=N/NC2=N/C(=C\c3ccco3)C(=O)N2)cc1,GI50,HCT-15,> 100 µM
same,GI50,IGROV-1,> 100 µM (inactive)
same,GI50,UACC-62,> 100 µM (inactive)
same,GI50,HT-29,> 100 µM (inactive)
same,GI50,M14,> 100 µM (inactive)
same,GI50,COLO 205,> 100 µM (inactive)
same,GI50,SN12C,> 100 µM (inactive)
same,GI50,OVCAR-8,> 100 µM (inactive)
same,GI50,SK-MEL-28,> 100 µM (inactive)
same,GI50,MOLT-4,> 100 µM (inactive)
same,GI50,SF-268,> 100 µM (inactive)
same,GI50,HOP-92,> 100 µM (inactive)
same,GI50,UACC-257,> 100 µM (inactive)
same,GI50,MDA-MB-231,> 100 µM (inactive)
same,GI50,KM12,> 100 µM (inactive)
same,GI50,DU-145,> 100 µM (inactive)
same,GI50,PC-3,> 100 µM (inactive)
same,GI50,SF-295,> 100 µM (inactive)
same,GI50,NCI-H522,> 100 µM (inactive)
same,GI50,ACHN,> 100 µM (inactive)
same,GI50,TK-10,> 100 µM (inactive)
same,GI50,NCI-H23,> 100 µM (inactive)
same,GI50,MDA-MB-435,> 100 µM (inactive)
same,GI50,SNB-19,> 100 µM (inactive)
same,GI50,RPMI-8226,> 100 µM (inactive)
same,GI50,NCI-H460,> 100 µM (inactive)
same,GI50,BT-549,> 100 µM (inactive)
same,GI50,SF-539,> 100 µM (inactive)
same,GI50,NCI-H226,> 100 µM (inactive)
same,GI50,Hs-578T,> 100 µM (inactive)
same,GI50,K562,> 100 µM (inactive)
same,GI50,MDA-N,> 100 µM (inactive)
same,GI50,SW-620,> 100 µM (inactive)
same,GI50,NCI/ADR-RES,> 100 µM (inactive)
same,GI50,SK-OV-3,> 100 µM (inactive)
same,GI50,OVCAR-5,> 100 µM (inactive)
same,GI50,SK-MEL-2,> 100 µM (inactive)
same,GI50,SK-MEL-5,> 100 µM (inactive)
same,GI50,CAKI-1,> 100 µM (inactive)
same,GI50,EKVX,> 100 µM (inactive)
same,GI50,T47D,> 100 µM (inactive)
same,GI50,UO-31,> 100 µM (inactive)
same,GI50,Malme-3M,> 100 µM (inactive)
same,GI50,RXF 393,> 100 µM (inactive)
same,GI50,HCT-116,> 100 µM (inactive)
same,GI50,786-0,> 100 µM (inactive)
same,GI50,HOP-62,> 100 µM (inactive)
same,GI50,HL-60,> 100 µM (inactive)
same,GI50,OVCAR-3,> 100 µM (inactive)
same,GI50,LOX IMVI,> 100 µM (inactive)
same,GI50,SNB-75,> 100 µM (inactive)
same,GI50,U-251,> 100 µM (inactive)
same,GI50,CCRF-CEM,> 100 µM (inactive)
same,GI50,A549,> 100 µM (inactive)
same,GI50,A498,> 100 µM (inactive)
